The test has as its system poly (ADP-ribose) polymerase (PARP) cleavage in Jurkat cells. In words: Immunoblot analysis of PARP degradation. It is filed as cell-based, human. The note with it: 100 μM, 1 h pretreatment. As to the method:
Apoptosis induced by F035 & D1 was examined by proteolytic cleavage of poly (ADP-ribose) polymerase (PARP). Jurkat cells (2×10^6/ml) were treated with F035 (2 μg/ml) and D1 (2 μg/ml) for different lengths of time. Cell lysates were prepared in buffer containing 20 mM HEPES, 250 mM NaCl, 2 mM EDTA, 0.1% NP-40, 2 μg/ml leupeptin, 2 μg/ml aprotinin, 0.5 μg/ml benzamidine, 1 mM DTT and 1 mM PMSF. Cellular proteins (60 μg/ml) were separated on a 7.5% SDS polyacrylamide gel and electrotransferred onto a nitrocellulose membrane. The membrane was probed first with monclonal anti-PARP antibody (PharMingen) and then with anti-mouse antibody conjugated to horse radish peroxidase (HRPO). Protein bands were detected by chemiluminescense (ECL, Amersham). The extent of cleavage of the 116-kDa PARP into 85-kDa and 41-kDa peptide products was used as a measure of apoptosis (Tewari et al., 1995).

z-vad fmk: the “Effect on F035 induced cleavage of PARP (in words)” value was “completely reversed”.

The values above are taken from US8324177B2, “Triterpene compositions and methods for use thereof” (Research Development Foundation, priority 1998, dated 2012).
